These results are taken from patent US12459951B2, “Compounds that interact with RAS superfamily proteins for treatment of cancers, inflammatory diseases, rasopathies, and fibrotic disease” (SHY Therapeutics, LLC, priority 2022, dated 2025).

A value given as a limit tells only on which side of the number the result lay.

As usually defined, the solubility is the dissolved amount per volume that the medium holds.

The test system of series [1] is Smad2/Smad3 phosphorylation. As to the kind of experiment: Phospho-Smad2/3 Inhibition Assay (western blot), Panc-1. Type of series: cell-based, human. The following applies: at 10 μM, Panc-1 pancreatic cancer cell line; starred symbols = activation. The method, boiled down: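 Panc-1 cells (KRas G12D), starved overnight in 0.5% FBS, treated 3 h at 37° C with compound at 10 μM final (0.3% DMSO) or serial dilutions for IC50, then stimulated with 10 ng/ml TGF-b1 for 1 h. Phospho-Smad2 (Ser465/467) and phospho-Smad3 (Ser423/425) detected by western blot.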
(In general: A western blot detects proteins with antibodies after separation by electrophoresis.)

Series [2] can be described thus: Mouse Liver Microsome Metabolic Stability Assay. In kind it is in vitro ADME. The following applies: pH 7.4, Mouse liver microsomes, 37° C., NADPH, read-out: t½. As for the experimental part: Biological Example 10: Assessment of Metabolic Stability in Mouse Liver Microsomes
Metabolic Stability Assay: Microsomal incubations were carried out in 96-well plates in 5 aliquots of 30 μL each (one for each time point). Liver microsomal incubation medium comprised of phosphate buffer (100 mM, pH 7.4), MgCl2 (3.3 mM), NADPH (3 mM), glucose-6-phosphate (5.3 mM), glucose-6-phosphate dehydrogenase (0.67 units/ml) with 0.42 mg of liver microsomal protein per mL. In the control reactions the NADPH-cofactor system was substituted with phosphate buffer. Test compounds (2 μM, final solvent concentration 1.6%) were incubated with microsomes at 37° C., shaking at 100 rpm. Each reaction was performed in duplicates. Five time points over 40 minutes were analyzed. The reactions were stopped by adding 5 volumes of methanol containing internal standard to incubation aliquots, followed by protein sedimentation by centrifuging at 5500 rpm for 4 minutes. Supernatants were analyzed using the HPLC system coupled with tandem mass spectrometer.
The elimination constant (kel), half-life (t1/2) and intrinsic clearance (Clint) were determined in plot of […] versus time, using linear regression analysis:
In order to indicate the quality of the linear regression analysis, the R (correlation coefficient) values are provided. In some cases, the last time point is excluded from the calculations to ensure acceptable logarithmic linearity of decay.
Table 9 show metabolic stability data for selected compounds tested in the Mouse Liver Microsome Metabolic Stability assay described above.
Background: Microsomes from liver hold many membrane-bound enzymes, among them those of drug oxidation.

Series [3] in a line: Kinetic Solubility Assay in pH 7.4 Buffer + 2% DMSO. In kind it is physicochemical. The following applies: phosphate-buffered saline pH 7.4 with 2% DMSO, aqueous buffer, kinetic from dmso stock, 25° C., two hours. Here is the method: Biological Example 9: Kinetic Solubility
Kinetic solubility assay in pH 7.4 Buffer+2% DMSO (“Kinetic Solubility Assay) was performed according to the following protocol: Briefly, using a 20 mM stock solution of the tested compounds in 100% DMSO, dilutions were prepared to a theoretical concentration of 400 μM in duplicates in phosphate-buffered saline pH 7.4 (138 mM NaCl, 2.7 mM KCl, 10 mM K-phosphate) with 2% final DMSO. The tested compounds dilutions in PBS were further allowed to equilibrate at 25° C. on a thermostatic shaker for two hours and then filtered through HTS filter plates using a vacuum manifold. The filtrates of the test compounds were diluted 2-fold with acetonitrile with 2% DMSO before measuring.
In parallel, using a 20 mM stock solution of the tested compounds in 100% DMSO, dilutions were prepared to theoretical concentrations of 0 μM (blank), 10 μM, 25 μM, 50 μM, 100 μM, and 200 μM in 50% acetonitrile/PBS with 2% final DMSO to generate calibration curves. Ondansetron was used as a reference compound to control proper assay performance. 200 μL of each sample was transferred to a 96-well plate and measured in the 230-550 nm range with a 5 nm step.
The concentrations of compounds in PBS filtrate are calculated using a dedicated Microsoft Excel calculation script. Proper absorbance wavelengths for calculations are selected for each compound manually based on absorbance maximums (absolute absorbance unit values for the minimum and maximum concentration points within the 0-3 OD range). Each final dataset is visually evaluated by the operator, and goodness of fit (R2) is calculated for each calibration curve. The effective range of this assay is approximately 2-400 μM and the compounds returning values close to the upper limit of the range may have higher actual solubility (e.g., 5′-deoxy-5-fluorouridine).
Table 8 show kinetic solubility data for selected compounds tested in the Kinetic Solubility assay described above.

Regarding `Cc1c(-c2ccn(C)n2)cn2nc(-c3nccn3C)nc(Nc3cc(OC4CC4)ccn3)c12` [Compound 126, N-(4-Cyclopropoxypyridin-2-yl)-5-methyl-2-(1-methyl-1H-imidazol-2-yl)-6-(1-methyl-1H-pyrazol-3-yl)pyrrolo[2,1-f][1,2,4]triazin-4-amine], the “% inh of Smad2/3 phosphorylation in Panc-1” value (from here on “% inh”) in series [1] is on record as “A* (A* = 1-25% activation)”. The half-life at 2 µM in series [2] is more than 10 min.

In the case of `Cc1c(-c2ccn(C)n2)cn2nc(-c3nccn3C)nc(Nc3cc(OCC(F)(F)F)ccn3)c12` [Compound 129, 5-Methyl-2-(1-methyl-1H-imidazol-2-yl)-6-(1-methyl-1H-pyrazol-3-yl)-N-(4-(2,2,2-trifluoroethoxy)pyridin-2-yl)pyrrolo[2,1-f][1,2,4]triazin-4-amine], the “% inh” value in series [1] is “D* (D* = 76-100% activation)”. In series [2], the half-life at 2 µM was more than 10 min.

Take `Cc1c(-c2ccn(C)n2)cn2nc(-c3nccn3C)nc(Nc3cc4n(n3)CCC4)c12` [Compound 100, N-(5,6-Dihydro-4H-pyrrolo[1,2-b]pyrazol-2-yl)-5-methyl-2-(1-methyl-1H-imidazol-2-yl)-6-(1-methyl-1H-pyrazol-3-yl)pyrrolo[2,1-f][1,2,4]triazin-4-amine]: the “% inh” value in series [1] was “C* (C* = 46-75% activation)”. In addition, the solubility at 2 h in series [3] was in the range of 10 to 30 µM.

Regarding `Cc1c(-c2ccn(C)n2)cn2nc(-c3nccn3C)nc(Nc3cc(OC(F)F)ccn3)c12` [Compound 128, N-(4-(Difluoromethoxy)pyridin-2-yl)-5-methyl-2-(1-methyl-1H-imidazol-2-yl)-6-(1-methyl-1H-pyrazol-3-yl)pyrrolo[2,1-f][1,2,4]triazin-4-amine], the “% inh” value in series [1] is recorded as “A (A = 1-25% inhibition)”. Also, the half-life at 2 µM in series [2] is more than 10 min.

Consider `Cc1c(-c2ccn(C)n2)cn2nc(-c3nccn3C)nc(Nc3ccncn3)c12.Cl` [Compound 116, 5-Methyl-2-(1-methyl-1H-imidazol-2-yl)-6-(1-methyl-1H-pyrazol-3-yl)-N-(pyrimidin-4-yl)pyrrolo[2,1-f][1,2,4]triazin-4-amine hydrochloride salt], for which the “% inh” value in series [1] was “D (D = 76-100% inhibition)”. For the same compound, the solubility at 2 h in series [3] lay in the range of 10 to 30 µM.

As for `Cc1c(-c2ccn(C)n2)cn2nc(-c3nccn3C)nc(Nc3ccccn3)c12` [Compound 118, 5-Methyl-2-(1-methyl-1H-imidazol-2-yl)-6-(1-methyl-1H-pyrazol-3-yl)-N-(pyridin-2-yl)pyrrolo[2,1-f][1,2,4]triazin-4-amine], in series [1], the “% inh” value was “A* (A* = 1-25% activation)”. For the same compound, the solubility at 2 h in series [3] was more than 30 µM.

As for `Cc1c(-c2cccnc2)cn2nc(-c3nccn3C)nc(Nc3ccncn3)c12` [Compound 156, 5-Methyl-2-(1-methyl-1H-imidazol-2-yl)-6-(pyridin-3-yl)-N-(pyrimidin-4-yl)pyrrolo[2,1-f][1,2,4]triazin-4-amine], in series [1], the “% inh” value is listed as “D (D = 76-100% inhibition)”. For the same compound, in series [2], the half-life at 2 µM was more than 10 min.

Regarding `Cc1c(-c2ccn(C)n2)cn2nc(-c3nccn3C)nc(Nc3nccn3C)c12` [Compound 106, 5-Methyl-N,2-bis(1-methyl-1H-imidazol-2-yl)-6-(1-methyl-1H-pyrazol-3-yl)pyrrolo[2,1-f][1,2,4]triazin-4-amine], in series [1], the “% inh” value is given as “D* (D* = 76-100% activation)”.

With `Cc1c(-c2ccn(C3CC3)n2)cn2nc(-c3nccn3C)nc(Nc3cc(OCCO)ccn3)c12` [Compound 146, 2-((2-((6-(1-Cyclopropyl-1H-pyrazol-3-yl)-5-methyl-2-(1-methyl-1H-imidazol-2-yl)pyrrolo[2,1-f][1,2,4]triazin-4-yl)amino)pyridin-4-yl)oxy)ethan-1-ol], the “% inh” value in series [1] was “C (C = 46-75% inhibition)”.

As to `Cc1c(-c2ccn(C3CC3)n2)cn2nc(-c3nccn3C)nc(O)c12` [Compound 134, 6-(1-Cyclopropyl-1H-pyrazol-3-yl)-5-methyl-2-(1-methyl-1H-imidazol-2-yl)pyrrolo[2,1-f][1,2,4]triazin-4-ol], the “% inh” value in series [1] was “B (B = 26-45% inhibition)”.

Consider `Cc1c(-c2ccn(C)n2)cn2nc(-c3nccn3C)nc(Nc3cnccn3)c12` [Compound 120, 5-Methyl-2-(1-methyl-1H-imidazol-2-yl)-6-(1-methyl-1H-pyrazol-3-yl)-N-(pyrazin-2-yl)pyrrolo[2,1-f][1,2,4]triazin-4-amine], for which the “% inh” value in series [1] is “A* (A* = 1-25% activation)”.

Turning to `COc1cccnc1Nc1nc(-c2nccn2C)nn2cc(-c3ccn(C)n3)c(C)c12` [Compound 112, N-(3-Methoxypyridin-2-yl)-5-methyl-2-(1-methyl-1H-imidazol-2-yl)-6-(1-methyl-1H-pyrazol-3-yl)pyrrolo[2,1-f][1,2,4]triazin-4-amine], the “% inh” value in series [1] is given as “D* (D* = 76-100% activation)”.

As to `CO[C@H]1CC[C@@H](Nc2nc(-c3nccn3C)nn3cc(-c4ccn(C)n4)c(C)c23)C1` (racemic) [Compound 133, rac N-((1R,3S)-3-Methoxycyclopentyl)-5-methyl-2-(1-methyl-1H-imidazol-2-yl)-6-(1-methyl-1H-pyrazol-3-yl)pyrrolo[2,1-f][1,2,4]triazin-4-amine], the “% inh” value in series [1] is reported as “A (A = 1-25% inhibition)”.

On to `COc1cc(-c2cn3nc(-c4nccn4C)nc(N[C@H]4C[C@@H](OC)C4)c3c2C)ccn1` [Compound 162, N-((1s,3s)-3-Methoxycyclobutyl)-6-(2-methoxypyridin-4-yl)-5-methyl-2-(1-methyl-1H-imidazol-2-yl)pyrrolo[2,1-f][1,2,4]triazin-4-amine], for which the “% inh” value in series [1] is recorded as “A (A = 1-25% inhibition)”.

For the compound `COc1cc(Nc2nc(-c3nccn3C)nn3cc(-c4cccnc4)c(-c4ccccn4)c23)ncn1` [Compound 167, N-(6-Methoxypyrimidin-4-yl)-2-(1-methyl-1H-imidazol-2-yl)-5-(pyridin-2-yl)-6-(pyridin-3-yl)pyrrolo[2,1-f][1,2,4]triazin-4-amine], the “% inh” value in series [1] is 0 (0 = 0% inhibition).

For `COc1cc(Nc2nc(-c3nccn3C)nn3cc(-c4ccccn4)c(C)c23)ncn1` [Compound 94, N-(6-Methoxypyrimidin-4-yl)-5-methyl-2-(1-methyl-1H-imidazol-2-yl)-6-(pyridin-2-yl)pyrrolo[2,1-f][1,2,4]triazin-4-amine], the “% inh” value in series [1] is reported as “B* (B* = 26-45% activation)”.

As to `COc1cc(-c2cn3nc(-c4nccn4C)nc(N[C@@H]4CC[C@H](OC)C4)c3c2C)ccn1` (racemic) [Compound 164, rac N-((1R,3S)-3-Methoxycyclopentyl)-6-(2-methoxypyridin-4-yl)-5-methyl-2-(1-methyl-1H-imidazol-2-yl)pyrrolo[2,1-f][1,2,4]triazin-4-amine], the “% inh” value in series [1] is on record as “A* (A* = 1-25% activation)”.

On to `Cc1c(-c2ccn(C)n2)cn2nc(-c3nccn3C)nc(Nc3cc(OC(F)(F)F)ccn3)c12` [Compound 127, 5-Methyl-2-(1-methyl-1H-imidazol-2-yl)-6-(1-methyl-1H-pyrazol-3-yl)-N-(4-(trifluoromethoxy)pyridin-2-yl)pyrrolo[2,1-f][1,2,4]triazin-4-amine], for which, in series [1], the “% inh” value is recorded as “A (A = 1-25% inhibition)”. In series [2], the half-life at 2 µM was less than 10 min.
